From patent US5391540A, “Substituted pyridine compounds” (Rohm and Haas Company, priority 1993, dated 1995)

Assays:
Test in all cases: Pre-emergent herbicidal activity (Table A)
Format in all cases: in vivo
[1] = test system: Barnyardgrass; conditions: Echinochloa crus-galli, pre-emergence, Bygr, 11.2 kg/ha, 10-14 days, read-out: herbicidal rating (% inhibition)
Procedure, shortened: (§1)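 Percent inhibition per species, scored on a rating scale, after pre-emergent soil incorporation: test compound in acetone or water carrier mixed into cover soil, layered over seeded topsoil or vegetative propagules.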

[2] = test system: Canada thistle; conditions: Cirsium arvense, pre-emergence, Cath, 11.2 kg/ha, 10-14 days, read-out: herbicidal rating (% inhibition)
Procedure, shortened: as §1

[3] = test system: Cocklebur; conditions: Xanthium strumarium, pre-emergence, Cobu, 11.2 kg/ha, 10-14 days, read-out: herbicidal rating (% inhibition)
Procedure, shortened: as §1

[4] = test system: Common Lambsquarters; conditions: Chenopodium album, pre-emergence, Colq, 11.2 kg/ha, 10-14 days, read-out: herbicidal rating (% inhibition)
Procedure, shortened: as §1

[5] = test system: Downy Brome; conditions: Bromus tectorum, pre-emergence, Dobr, 11.2 kg/ha, 10-14 days, read-out: herbicidal rating (% inhibition)
Procedure, shortened: as §1

[6] = test system: Morningglory; conditions: Ipomoea, pre-emergence, Mogl, 11.2 kg/ha, 10-14 days, read-out: herbicidal rating (% inhibition)
Procedure, shortened: as §1

[7] = test system: Pennsylvania Smartweed; conditions: pre-emergence, Pesw, 11.2 kg/ha, 10-14 days, read-out: herbicidal rating (% inhibition)
Procedure, shortened: as §1

[8] = test system: Quackgrass; conditions: pre-emergence, Rhqg, 11.2 kg/ha, 10-14 days, read-out: herbicidal rating (% inhibition)
Procedure, shortened: as §1

[9] = test system: Rhizome Johnsongrass; conditions: Sorghum halepense, pre-emergence, Rhjg, 11.2 kg/ha, 10-14 days, read-out: herbicidal rating (% inhibition)
Procedure, shortened: as §1

[10] = test system: Velvetleaf; conditions: Abutilon theophrasti, pre-emergence, Vele, 11.2 kg/ha, 10-14 days, read-out: herbicidal rating (% inhibition)
Procedure, shortened: as §1

[11] = test system: Yellow Nutsedge; conditions: Cyperus, pre-emergence, Yens, 11.2 kg/ha, 10-14 days, read-out: herbicidal rating (% inhibition)
Procedure, shortened: as §1

COC(=O)c1c(OC)nc(C(F)(F)F)c(C2=NC(C)(C)CS2)c1CC(C)C [Compound 75, 3-pyridinecarboxylic acid, 5-(4,5-dihydro-4,4-dimethy1-2-thiazolyl)-2-methoxy-4-(2-methylpropyl)-6-(trifluoromethyl)-, methyl ester]
inhibition at 11200 g/ha [1]: 75 to 100% | inhibition at 11200 g/ha [2]: 75 to 100% | inhibition at 11200 g/ha [3]: 50 to 74% | inhibition at 11200 g/ha [4]: 75 to 100% | inhibition at 11200 g/ha [5]: 75 to 100% | inhibition at 11200 g/ha [6]: 75 to 100% | inhibition at 11200 g/ha [7]: 75 to 100% | inhibition at 11200 g/ha [8]: 75 to 100% | inhibition at 11200 g/ha [9]: 25 to 49% | inhibition at 11200 g/ha [10]: 75 to 100% | inhibition at 11200 g/ha [11]: 75 to 100%

COC=Nc1c(C(F)(F)F)nc(OC)c(C(=O)OC)c1CC(C)C [Compound 76, 3-pyridinecarboxylic acid, 2-methoxy-5-[(methoxymethylene)amino]-4-(2-methylpropyl)-6-(trifluoromethyl)-, methyl ester]
inhibition at 11200 g/ha [1]: 75 to 100% | inhibition at 11200 g/ha [2]: 75 to 100% | inhibition at 11200 g/ha [3]: 0 to 24% | inhibition at 11200 g/ha [4]: 75 to 100% | inhibition at 11200 g/ha [5]: 75 to 100% | inhibition at 11200 g/ha [6]: 75 to 100% | inhibition at 11200 g/ha [7]: 75 to 100% | inhibition at 11200 g/ha [8]: 75 to 100% | inhibition at 11200 g/ha [9]: 50 to 74% | inhibition at 11200 g/ha [10]: 75 to 100% | inhibition at 11200 g/ha [11]: 50 to 74%

CCSC=Nc1c(C(F)(F)F)nc(OC)c(C(=O)OC)c1CC(C)C [Compound 78, 3-pyridinecarboxylic acid, 5-[[(ethylthio)methylene]amino]-2-methoxy-4-(2-methylpropyl)-6-(trifluoromethyl)-, methyl ester]
inhibition at 11200 g/ha [1]: 75 to 100% | inhibition at 11200 g/ha [2]: 75 to 100% | inhibition at 11200 g/ha [3]: 0 to 24% | inhibition at 11200 g/ha [4]: 75 to 100% | inhibition at 11200 g/ha [5]: 75 to 100% | inhibition at 11200 g/ha [6]: 75 to 100% | inhibition at 11200 g/ha [7]: 75 to 100% | inhibition at 11200 g/ha [8]: 50 to 74% | inhibition at 11200 g/ha [9]: 0 to 24% | inhibition at 11200 g/ha [10]: 75 to 100% | inhibition at 11200 g/ha [11]: 0 to 24%

C#CCOc1nc(C(F)(F)F)c(C(=O)OC)c(CC(C)C)c1C(=O)OC [Compound 83, 3,5-pyridinedicarboxylic acid, 4-(2-methylpropyl)-2-(2-propynyloxy)-6-(trifluoromethyl)-, dimethyl ester]
inhibition at 11200 g/ha [1]: 75 to 100% | inhibition at 11200 g/ha [2]: 25 to 49% | inhibition at 11200 g/ha [3]: 0 to 24% | inhibition at 11200 g/ha [4]: 75 to 100% | inhibition at 11200 g/ha [5]: 75 to 100% | inhibition at 11200 g/ha [6]: 75 to 100% | inhibition at 11200 g/ha [7]: 75 to 100% | inhibition at 11200 g/ha [8]: 75 to 100% | inhibition at 11200 g/ha [9]: 25 to 49% | inhibition at 11200 g/ha [10]: 75 to 100% | inhibition at 11200 g/ha [11]: 0 to 24%

COC(=O)c1c(OC)nc(C(F)(F)F)c(C(=O)OC)c1C [Compound 86, 3,5-pyridinedicarboxylic acid, 2-methoxy-4-methy1-6-(trifluoromethyl)-, dimethyl ester]
inhibition at 11200 g/ha [1]: 75 to 100% | inhibition at 11200 g/ha [2]: 0 to 24% | inhibition at 11200 g/ha [3]: 0 to 24% | inhibition at 11200 g/ha [4]: 75 to 100% | inhibition at 11200 g/ha [5]: 75 to 100% | inhibition at 11200 g/ha [6]: 75 to 100% | inhibition at 11200 g/ha [7]: 50 to 74% | inhibition at 11200 g/ha [8]: 75 to 100% | inhibition at 11200 g/ha [9]: 75 to 100% | inhibition at 11200 g/ha [10]: 50 to 74% | inhibition at 11200 g/ha [11]: 0 to 24%

COC(=O)c1c(OC)nc(C(F)(F)F)c(C(=O)OC)c1CSC [Compound 89, 3,5-pyridinedicarboxylic acid, 2-methoxy-4-[(methylthio)methyl]-6-(trifluoromethyl)-, dimethyl ester]
inhibition at 11200 g/ha [1]: 75 to 100% | inhibition at 11200 g/ha [2]: 75 to 100% | inhibition at 11200 g/ha [3]: 25 to 49% | inhibition at 11200 g/ha [4]: 75 to 100% | inhibition at 11200 g/ha [5]: 25 to 49% | inhibition at 11200 g/ha [6]: 75 to 100% | inhibition at 11200 g/ha [7]: 75 to 100% | inhibition at 11200 g/ha [8]: 25 to 49% | inhibition at 11200 g/ha [9]: 0 to 24% | inhibition at 11200 g/ha [10]: 75 to 100% | inhibition at 11200 g/ha [11]: 0 to 24%
